Experimental data taken from patent publication US20210253598A1, “ARYL ANNULATED MACROCYCLIC INDOLE DERIVATIVES” (priority 2017, published 2021).
Values joined by “and” are separate entries in the source; they are usually repeats but may differ in a detail not shown here. Equal entries are not always repeated. Structures can show the parent of a compound that is named as a salt. Where two headings read alike, the source gives them in different places.

Experiments:
Type in all cases: cell-based
SUDHL10 [1] = test: Induction of caspase-3/7 activity in SUDHL10 cells (Assay 4)
Outline: (§1)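 DLBCL lines SUDHL5 and SUDHL10 were treated with compound for 3 h at 37 °C. Caspase-3/7 activity was then read by Caspase-Glo 3/7 luminescence after 1 h at 37 °C. Medium-only background was subtracted and values were normalized to the mean of DMSO-treated cells.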

SUDHL5 [2] = test: Induction of caspase-3/7 activity in SUDHL5 cells (Assay 4)
Outline: as §1

SUDHL10 [3] = test: Induction of cytotoxicity in SUDHL10 cells, CellTiter-Glo (Assay 6); conditions: SUDHL10, 5 hours incubation, median, read-out: Cytotox SUDHL10 [M] (median)
Outline: (§2)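 Viability of treated lymphoma cells is measured by luminescence with CellTiter-Glo reagent, incubated 15 minutes at room temperature. Compound exposure lasts 5 hours at 37° C.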

SUDHL5 [4] = test: Induction of cytotoxicity in SUDHL5 cells, CellTiter-Glo (Assay 6); conditions: SUDHL5, 5 hours incubation, median, read-out: Cytotox SUDHL5 [M] (median)
Outline: as §2

A2780 = test: Anti-proliferative effect in A2780 cells, CellTiter-Glo (Assay 7); conditions: several values per example
Outline: (§3)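 CellTiter-Glo luminescence after 72 h compound exposure at 37 °C; a parallel time-zero plate was read the same way. IC50 derived relative to day 0 signal and DMSO control.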

AMO-1 = test: Anti-proliferative effect in AMO-1 cells, CellTiter-Glo (Assay 7)
Outline: as §3

[5] = Homo sapiens, SU-DHL10, 3 h, SUDHL10, 3 hours treatment, Caspase-Glo 3/7, median, read-out: Caspase SUDHL10 [M] (median)
[6] = Homo sapiens, SU-DHL-5, 3 h, SUDHL5, 3 hours treatment, Caspase-Glo 3/7, median, read-out: Caspase SUDHL5 [M] (median)
[7] = SUDHL10, 3 hours treatment, Caspase-Glo 3/7, median, read-out: Caspase SUDHL10 [M] (median)
[8] = SUDHL5, 3 hours treatment, Caspase-Glo 3/7, median, read-out: Caspase SUDHL5 [M] (median)
[9] = A2780, 72 hours incubation, CellTiter-Glo, read-out: Antiproli A2780
[10] = AMO-1, 72 hours incubation, CellTiter-Glo; several values per example; read-out: Antiproli AMO-1
[11] = Homo sapiens, AMO1, 72 h, AMO-1, 72 hours incubation, CellTiter-Glo; several values per example; read-out: Antiproli AMO-1
[12] = read-out: Caspase SUDHL10 [M] (median), SUDHL10, 3 hours treatment, Caspase-Glo 3/7
[13] = read-out: Antiproli AMO-1; AMO-1, 72 hours incubation, CellTiter-Glo; several values per example
[14] = read-out: Caspase SUDHL5 [M] (median), SUDHL5, 3 hours treatment, Caspase-Glo 3/7

## Cc1c2c(nn1C)COCc1ccccc1Cn1c(C(=O)O)c(CCCOc3cccc4cc(F)ccc34)c3ccc(Cl)c-2c31 (racemic) [Example 48, (rac)-3-Chloro-17-{3-[(6-fluoronaphthalen-1-yl)oxy]propyl}-4,5-dimethyl-5,7,9,14-tetrahydroindolo[7,1-fg]pyrazolo[3,4-d][2,8]benzoxazacycloundecine-16-carboxylic Acid]
SUDHL10 [1]; [5]
  EC50: 3.1e-06 M
SUDHL5 [2]; [6]
  EC50: 1.1e-06 M
SUDHL10 [3]; Homo sapiens, SU-DHL10, 5 h
  IC50: 2.6e-06 M
SUDHL5 [4]; Homo sapiens, SU-DHL-5, 5 h
  IC50: 1.4e-06 M

## Cc1c2c(nn1C)COCc1ncccc1Cn1c(C(=O)O)c(CCCOc3cccc4ccccc34)c3cccc-2c31 (single isomer, unassigned; enantiomer 1) [Example 8, 4,5-Dimethyl-17-[3-(naphthalen-1-yloxy)propyl]-5,7,9,14-tetrahydropyrazolo[4′,3′:9,10]-pyrido[2′,3′:3,4][1,6]oxazacycloundecino[8,7,6-hi]indole-16-carboxylic acid-N-ethylethanamine Salt (Enantiomer 1)]
SUDHL10 [1]; [7]
  EC50: 9.9e-06 M
SUDHL5 [2]; [8]
  EC50: 2.5e-06 M
SUDHL10 [3]
  IC50: 7.2e-06 M
SUDHL5 [4]
  IC50: 3e-06 M

## Cc1c2c(nn1C)COCc1ccccc1Cn1c(C(=O)O)c(CCCOc3cccc4ccccc34)c3ccc(Cl)c-2c31 (single isomer, unassigned; enantiomer 1) [Example 37, (−)-3-Chloro-4,5-dimethyl-17-[3-(naphthalen-1-yloxy)propyl]-5,7,9,14-tetrahydroindolo[7,1-fg]pyrazolo[3,4-d][2,8]benzoxazacycloundecine-16-carboxylic Acid (Enantiomer 1)]
SUDHL10 [1]; [7]
  EC50: 2.5e-06 M
SUDHL5 [2]; [8]
  EC50: 8.4e-07 M
SUDHL10 [3]
  IC50: 2.7e-06 M
SUDHL5 [4]
  IC50: 8.6e-07 M

## CCNCC.Cc1c2c(nn1C)COCc1ncccc1Cn1c(C(=O)O)c(CCCOc3cccc4ccccc34)c3ccc(Cl)c-2c31 (single isomer, unassigned; enantiomer 1) [Example 43, 3-Chloro-4,5-dimethyl-17-[3-(naphthalen-1-yloxy)propyl]-5,7,9,14-tetrahydropyrazolo-[4′,3′:9,10]pyrido[2′,3′:3,4][1,6]oxazacycloundecino[8,7,6-hi]indole-16-carboxylic acid-N-ethylethanamine Salt (Enantiomer 1)]
A2780; [9]
  IC50: 2.34e-05 M
SUDHL10 [1]; [7]
  EC50: 3.7e-06 M
SUDHL5 [2]; [8]
  EC50: 1.2e-06 M
SUDHL10 [3]
  IC50: 2.9e-06 M
AMO-1; [10]
  IC50: 5160 nM and 7470 nM
SUDHL5 [4]
  IC50: 1.4e-06 M

## Cc1c2c(nn1C)COCc1ccccc1Cn1c(C(=O)O)c(CCCOc3cccc4cc(F)ccc34)c3ccc(Cl)c-2c31 (single isomer, unassigned; enantiomer 1) [Example 49, (−)-3-Chloro-17-{3-[(6-fluoronaphthalen-1-yl)oxy]propyl}-4,5-dimethyl-5,7,9,14-tetrahydroindolo[7,1-fg]pyrazolo[3,4-d][2,8]benzoxazacycloundecine-16-carboxylic acid-N-ethylethanamine Salt (Enantiomer 1)]
A2780; [9]
  IC50: 7.62e-06 M and 5.26e-06 M
SUDHL10 [1]; [5]
  EC50: 2.1e-06 M
SUDHL5 [2]; [6]
  EC50: 7.7e-07 M
SUDHL10 [3]; Homo sapiens, SU-DHL10, 5 h
  IC50: 1.6e-06 M
AMO-1; [11]
  IC50: 1920 nM
SUDHL5 [4]; Homo sapiens, SU-DHL-5, 5 h
  IC50: 8.8e-07 M

## CCc1nn(CCN2CCOCC2)c2c1-c1c(Cl)ccc3c(CCCOc4cccc5cc(F)ccc45)c(C(=O)O)n(c13)Cc1ccccc1COC2 (single isomer, unassigned; enantiomer 1) [Example 52, (−)-3-Chloro-4-ethyl-17-{3-[(6-fluoronaphthalen-1-yl)oxy]propyl}-6-[2-(morpholin-4-yl)ethyl]-6,7,9,14-tetrahydroindolo[7,1-fg]pyrazolo[3,4-d][2,8]benzoxazacycloundecine-16-carboxylic Acid (Enantiomer 1)]
A2780; [9]
  IC50: 2.41e-06 M
SUDHL10 [1]; [7]
  EC50: 7.1e-07 M
SUDHL5 [2]; [8]
  EC50: 4.9e-07 M
SUDHL10 [3]
  IC50: 8.8e-07 M
AMO-1; [10]
  IC50: 2270 nM
SUDHL5 [4]
  IC50: 5.2e-07 M

## CCc1c2c(nn1C)COCc1ccccc1Cn1c(C(=O)O)c(CCCOc3cccc4cc(F)ccc34)c3ccc(Cl)c-2c31 (single isomer, unassigned; enantiomer 1) [Example 55, (−)-3-Chloro-4-ethyl-17-{3-[(6-fluoronaphthalen-1-yl)oxy]propyl}-5-methyl-5,7,9,14-tetrahydro-indolo[7,1-fg]pyrazolo[3,4-d][2,8]benzoxazacycloundecine-16-carboxylic Acid N-ethylethanamine Salt (Enantiomer 1)]
SUDHL10 [1]; [12]
  EC50: 8.7e-07 M
SUDHL5 [2]; Homo sapiens, SU-DHL-5, 3 h, read-out: Caspase SUDHL5 [M] (median), SUDHL5, 3 hours treatment, Caspase-Glo 3/7
  EC50: 6.6e-07 M
SUDHL10 [3]
  IC50: 1.3e-06 M
AMO-1; [13]
  IC50: 1190 nM
SUDHL5 [4]
  IC50: 6.4e-07 M

## CCc1nn(C)c2c1-c1c(Cl)ccc3c(CCCOc4cccc5cc(F)ccc45)c(C(=O)O)n(c13)Cc1ccccc1COC2 (single isomer, unassigned; enantiomer 1) [Example 58, (+)-3-Chloro-4-ethyl-17-{3-[(6-fluoronaphthalen-1-yl)oxy]propyl}-6-methyl-6,7,9,14-tetrahydro-indolo[7,1-fg]pyrazolo[3,4-d][2,8]benzoxazacycloundecine-16-carboxylic acid-N-ethylethanamine Salt (Enantiomer 1)]
SUDHL10 [1]; [7]
  EC50: 2.1e-06 M
SUDHL5 [2]; [8]
  EC50: 8e-07 M
SUDHL10 [3]
  IC50: 2.6e-06 M
AMO-1; [10]
  IC50: 1610 nM
SUDHL5 [4]
  IC50: 8.1e-07 M

## Cc1c2c(nn1C)COCc1ccccc1Cn1c(C(=O)O)c(CCCOc3cccc4cc(F)ccc34)c3ccc(F)c-2c31 (single isomer, unassigned; enantiomer 1) [Example 65, (−)-3-fluoro-17-{3-[(6-fluoronaphthalen-1-yl)oxy]propyl}-4,5-dimethyl-5,7,9,14-tetrahydroindolo[7,1-fg]pyrazolo[3,4-d][2,8]benzoxazacycloundecine-16-carboxylic acid-N-ethylethanamine Salt (Enantiomer 1)]
A2780; Homo sapiens, A2780, 72 h, A2780, 72 hours incubation, CellTiter-Glo, read-out: Antiproli A2780
  IC50: 1.01e-05 M
SUDHL10 [1]; [5]
  EC50: 2.1e-06 M
SUDHL5 [2]; [6]
  EC50: 8.1e-07 M
SUDHL10 [3]
  IC50: 2.1e-06 M
AMO-1; [10]
  IC50: 1750 nM
AMO-1; [11]
  IC50: 2000 nM
SUDHL5 [4]
  IC50: 1e-06 M

## Cc1c2c(nn1C)COCc1ccccc1Cn1c(C(=O)O)c(CCCOc3cccc4ccccc34)c3ccc(F)c-2c31 (single isomer, unassigned; enantiomer 1) [Example 68, (−)-3-Fluoro-4,5-dimethyl-17-{3-[(naphthalen-1-yl)oxy]propyl}-5,7,9,14-tetrahydroindolo[7,1-fg]pyrazolo[3,4-d][2,8]benzoxazacycloundecine-16-carboxylic acid-N-ethylethanamine Salt (Enantiomer 1)]
A2780; Homo sapiens, A2780, 72 h, read-out: Antiproli A2780 [M], A2780, 72 hours incubation, CellTiter-Glo
  IC50: 2.9e-05 M
SUDHL10 [1]; [12]
  EC50: 1.1e-05 M
SUDHL5 [2]; [14]
  EC50: 1.2e-06 M
SUDHL10 [3]
  IC50: 4.6e-06 M
AMO-1; [13]
  IC50: 4400 nM and 4890 nM
SUDHL5 [4]
  IC50: 1.9e-06 M

## Cc1c2c(nn1C)COCc1ccccc1Cn1c(C(=O)O)c(CCCOc3cccc4cc(F)ccc34)c3ccc(Cl)c-2c31 (single isomer, unassigned; enantiomer 2) [Example 50, (+)-3-Chloro-17-{3-[(6-fluoronaphthalen-1-yl)oxy]propyl}-4,5-dimethyl-5,7,9,14-tetrahydroindolo[7,1-fg]pyrazolo[3,4-d][2,8]benzoxazacycloundecine-16-carboxylic acid-N-ethylethanamine Salt (Enantiomer 2)]
A2780; [9]
  IC50: 1.17e-05 M and 8.65e-06 M
SUDHL10 [1]; [7]
  EC50: 3.2e-06 M
SUDHL5 [2]; [8]
  EC50: 7.3e-07 M
SUDHL10 [3]
  IC50: 2.8e-06 M
AMO-1; [10]
  IC50: 2820 nM
SUDHL5 [4]
  IC50: 9.3e-07 M

## CCc1c2c(nn1C)COCc1ccccc1Cn1c(C(=O)O)c(CCCOc3cccc4cc(F)ccc34)c3ccc(Cl)c-2c31 (single isomer, unassigned; enantiomer 2) [Example 56, (+)-3-Chloro-4-ethyl-17-{3-[(6-fluoronaphthalen-1-yl)oxy]propyl}-5-methyl-5,7,9,14-tetrahydro-indolo[7,1-fg]pyrazolo[3,4-d][2,8]benzoxazacycloundecine-16-carboxylic Acid N-ethylethanamine Salt (Enantiomer 2)]
SUDHL10 [1]; [12]
  EC50: 5.4e-06 M
SUDHL5 [2]; [14]
  EC50: 1.3e-06 M
SUDHL10 [3]
  IC50: 3.7e-06 M
AMO-1; [13]
  IC50: 4200 nM
SUDHL5 [4]
  IC50: 1.6e-06 M
